The record followed here is patent US12312328B2, “Pyrazoline dihydroquinolones, pharmaceutical compositions, and uses” (Emory University, priority 2013, dated 2025).

Where two headings read alike, the source gives them in different places.

Data set [1] concerns the target T1, GluN2C-containing receptors (Rattus norvegicus, UniProt P35439+Q00961).
T1 construct: expressed in transfected cells; host or cells: Xenopus laevis oocytes
Nature of the data set: Two-electrode voltage-clamp inhibition of GluN2C-containing NMDA receptors in Xenopus laevis oocytes. In kind it is cell-based. As for the experimental part: (§1) IC50 values were obtained by fitting the Hill equation to the average composite concentration-effect curves.
(§2) Xenopus laevis oocytes were isolated and maintained as described in Hansen & Traynelis, J Neurosci 2011, 31, 3650-3661. Oocytes were placed in a perfusion chamber with recording solution comprised of (in mM) 90 NaCl, 1 KCl, 0.5 BaCl2, 0.005 EDTA and 10 HEPES, pH adjusted to 7.4 with NaOH at 23° C. The glass electrodes used had tip resistance of 0.5-2.0 MΩ and were filled with 0.3-3.0 M KCl. Compounds were made as 20 mM stock solutions in DMSO and diluted to final concentrations in recording solution (final DMSO was 0.1-0.05% vol/vol). The current recordings were performed using a Warner OC-725B or C amplifier at a holding potential of −40 mV.
(In two-electrode clamp one electrode senses voltage and the other passes current.)

The target in data set [2] is T2, GluN2D-containing receptors (Rattus norvegicus, UniProt P35439+Q62645).
T2 construct: expressed in transfected cells; host or cells: Xenopus laevis oocytes
Nature of the data set: Two-electrode voltage-clamp inhibition of GluN2D-containing NMDA receptors in Xenopus laevis oocytes. The class given is cell-based. The conditions noted are these: GluN2D-containing receptors. As for the experimental part: as §1, §2

Data set [3] deals with MDR1-MDCK cell monolayers. Briefly: MDR1-MDCK permeability assay. In kind it is in vitro ADME. Here is the method:
The Papp and efflux ratio were calculated as described in the Methods. […] See Wang et al., International Journal of Pharmaceutics, 2005, 288, 349-359.
Cell monolayers were grown to confluence on collagen-coated, microporous, polycarbonate membranes in 12-well Costar Transwell® plates. The permeability assay buffer was Hanks Balanced Salt Solution containing 10 mM HEPES and 15 mM glucose at pH 7.4. The buffer in the receiver chamber also contained 1% bovine serum albumin. The dosing solution concentration in the assay buffer was 5 μM for each compound tested. The cell monolayers were dosed on the apical side (A-to-B) or basolateral side (B-to-A) and incubated at 37° C. with 5% CO2 in a humidified incubator. Samples were taken from the donor and receiver chambers at 120 minutes. Each determination was performed in duplicate. The co-dosed lucifer yellow flux was also measured for each monolayer to ensure no damage was inflicted to the cell monolayers during the flux period. All samples were assayed by LC-MS/MS using electrospray ionization. The apparent permeability (Papp) and percent recovery were calculated as follows. […] Human Liver Microsomal Stability

Data set [4] concerns the target T3, GluN2D-containing receptors (Rattus norvegicus, UniProt Q62645).
T3 construct: expressed in transfected cells; host or cells: Xenopus laevis oocytes
Briefly: Two-electrode voltage-clamp inhibition of GluN2D-containing NMDA receptors in Xenopus laevis oocytes. The class given is cell-based. As for the experimental part:
as §1, §2

The test system of data set [5] is GluN2C- and GluN2D-containing NMDA receptors. Nature of the data set: NMDA receptor inhibition and subunit selectivity, GluN2C/GluN2D not told apart. The class given is cell-based. Here is the method:
as §1, §2

T3 sequence (Q62645 28-1323, other chains not shown): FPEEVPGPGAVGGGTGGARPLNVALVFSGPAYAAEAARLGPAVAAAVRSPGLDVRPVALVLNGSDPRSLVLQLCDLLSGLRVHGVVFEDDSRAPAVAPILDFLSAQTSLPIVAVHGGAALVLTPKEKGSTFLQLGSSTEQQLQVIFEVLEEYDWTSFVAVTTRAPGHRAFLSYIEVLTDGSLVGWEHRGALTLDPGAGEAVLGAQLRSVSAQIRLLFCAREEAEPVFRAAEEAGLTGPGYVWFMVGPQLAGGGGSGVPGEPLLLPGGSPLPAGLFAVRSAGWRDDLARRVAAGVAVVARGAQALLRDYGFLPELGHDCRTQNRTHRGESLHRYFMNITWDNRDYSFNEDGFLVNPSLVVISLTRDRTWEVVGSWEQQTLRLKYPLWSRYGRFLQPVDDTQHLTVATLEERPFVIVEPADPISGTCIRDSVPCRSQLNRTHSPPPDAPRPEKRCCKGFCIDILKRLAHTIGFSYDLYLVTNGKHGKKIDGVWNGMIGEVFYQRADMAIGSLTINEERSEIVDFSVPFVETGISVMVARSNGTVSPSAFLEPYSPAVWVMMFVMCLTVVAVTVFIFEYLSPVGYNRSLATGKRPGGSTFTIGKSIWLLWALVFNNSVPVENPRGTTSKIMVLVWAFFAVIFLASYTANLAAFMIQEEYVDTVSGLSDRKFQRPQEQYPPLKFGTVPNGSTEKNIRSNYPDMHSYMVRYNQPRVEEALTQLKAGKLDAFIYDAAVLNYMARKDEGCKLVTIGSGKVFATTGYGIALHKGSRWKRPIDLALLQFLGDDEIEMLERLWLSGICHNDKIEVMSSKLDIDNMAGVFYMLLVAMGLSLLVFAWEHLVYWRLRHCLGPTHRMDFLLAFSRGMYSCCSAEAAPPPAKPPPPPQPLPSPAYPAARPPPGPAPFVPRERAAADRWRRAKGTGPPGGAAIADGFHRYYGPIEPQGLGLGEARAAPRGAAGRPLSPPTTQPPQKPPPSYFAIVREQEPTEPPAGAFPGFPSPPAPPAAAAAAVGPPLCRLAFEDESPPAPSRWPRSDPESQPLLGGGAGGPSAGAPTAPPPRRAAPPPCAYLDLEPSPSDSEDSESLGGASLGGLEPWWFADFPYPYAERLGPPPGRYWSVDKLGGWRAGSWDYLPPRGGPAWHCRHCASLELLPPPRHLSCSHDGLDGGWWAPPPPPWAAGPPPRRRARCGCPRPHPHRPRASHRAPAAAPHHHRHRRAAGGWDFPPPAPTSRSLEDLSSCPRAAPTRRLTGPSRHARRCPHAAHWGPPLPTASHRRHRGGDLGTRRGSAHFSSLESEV
T2 sequence (Q62645 28-1323, other chains not shown): as above
T1 sequence (Q00961 20-1237, other chains not shown): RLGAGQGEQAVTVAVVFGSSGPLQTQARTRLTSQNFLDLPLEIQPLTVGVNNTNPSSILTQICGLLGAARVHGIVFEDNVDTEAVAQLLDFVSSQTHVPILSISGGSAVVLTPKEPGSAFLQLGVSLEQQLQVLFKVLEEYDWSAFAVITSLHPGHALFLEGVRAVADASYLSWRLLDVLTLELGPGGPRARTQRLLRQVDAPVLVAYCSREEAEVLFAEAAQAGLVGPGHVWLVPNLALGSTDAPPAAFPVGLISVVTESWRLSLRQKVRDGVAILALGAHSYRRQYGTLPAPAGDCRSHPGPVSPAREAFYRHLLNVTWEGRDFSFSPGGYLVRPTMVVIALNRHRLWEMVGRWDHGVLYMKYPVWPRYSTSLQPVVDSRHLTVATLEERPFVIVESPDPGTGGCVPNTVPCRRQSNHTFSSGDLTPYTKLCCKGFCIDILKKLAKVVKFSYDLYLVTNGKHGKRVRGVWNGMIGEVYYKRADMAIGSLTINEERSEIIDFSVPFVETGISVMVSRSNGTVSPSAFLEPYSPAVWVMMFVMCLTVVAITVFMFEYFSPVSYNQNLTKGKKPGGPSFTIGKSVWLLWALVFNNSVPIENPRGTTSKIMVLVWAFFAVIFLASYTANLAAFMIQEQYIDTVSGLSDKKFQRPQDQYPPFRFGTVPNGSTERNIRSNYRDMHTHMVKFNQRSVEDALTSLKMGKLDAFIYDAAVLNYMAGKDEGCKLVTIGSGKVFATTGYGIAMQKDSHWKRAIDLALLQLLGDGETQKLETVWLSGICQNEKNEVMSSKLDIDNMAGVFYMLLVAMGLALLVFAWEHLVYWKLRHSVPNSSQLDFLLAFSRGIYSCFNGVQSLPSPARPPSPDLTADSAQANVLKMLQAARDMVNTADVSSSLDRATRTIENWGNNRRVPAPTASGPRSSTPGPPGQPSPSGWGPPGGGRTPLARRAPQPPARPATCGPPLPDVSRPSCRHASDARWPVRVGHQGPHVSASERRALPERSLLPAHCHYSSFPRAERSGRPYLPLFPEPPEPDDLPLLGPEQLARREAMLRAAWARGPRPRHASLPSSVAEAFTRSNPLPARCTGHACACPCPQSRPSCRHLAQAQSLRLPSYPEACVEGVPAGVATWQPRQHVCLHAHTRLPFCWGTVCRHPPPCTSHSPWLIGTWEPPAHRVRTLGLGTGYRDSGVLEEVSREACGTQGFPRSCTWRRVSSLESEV

As to `O=C(CC(F)(F)C(=O)O)N1N=C(c2c(-c3cccc(F)c3)c3ccccc3[nH]c2=O)CC1c1ccc(Cl)cc1` (stereo not shown) [4-(5-(4-chlorophenyl)-3-(4-(3-fluorophenyl)-2-oxo-1,2-dihydroquinolin-3-yl)-4,5-dihydro-1H-pyrazol-1-yl)-2,2-difluoro-4-oxobutanoic acid], the 50% inhibitory concentration (IC50) (as a rule, the concentration that gives 50% inhibition) in data set [1] is 600 nM; in data set [2], 500 nM.

Turning to `O=C(CC(F)(F)CO)N1N=C(c2c(-c3ccc(Cl)cc3)c3ccccc3[nH]c2=O)CC1c1ccc(Cl)cc1` (stereo not shown) [4-(4-chlorophenyl)-3-(5-(4-chlorophenyl)-1-(3,3-difluoro-4-hydroxybutanoyl)-4,5-dihydro-1H-pyrazol-3-yl)quinolin-2(1H)-one], the half-inhibitory concentration (IC50) was determined as 1600 nM in data set [1] and 800 nM in data set [2].

Take `O=C(CCCF)N1N=C(c2c(-c3ccc(Cl)cc3)c3ccccc3[nH]c2=O)CC1c1ccc(Cl)cc1` (stereo not shown) [Compound 997-64, 4-(4-Chlorophenyl)-3-(5-(4-chlorophenyl)-1-(4-fluorobutanoyl)-4,5-dihydro-1H-pyrazol-3-yl)quinolin-2(1H)-one]: in data set [3] (MDR1-MDCK, 5 μM, 120 minutes), the “Papp A-B” value amounted to 3.88 ×10⁻⁶ cm/s and the “Papp B-A” value came to 9.52 ×10⁻⁶ cm/s. Also, in data set [3] (from Papp and efflux ratio in MDR1-MDCK), the BBB penetration classification entry is recorded as “highly brain penetrable”.

As to `COC(=O)c1ccc(C2CC(c3c(-c4ccccc4)c4cc(Cl)ccc4[nH]c3=O)=NN2C(=O)CCC(=O)O)cc1` (stereo not shown) [Compound 997-6, 4-(3-(6-Chloro-2-oxo-4-phenyl-1,2-dihydroquinolin-3-yl)-5-(4-(methoxycarbonyl)phenyl)-4,5-dihydro-1H-pyrazol-1-yl)-4-oxobutanoic acid], in data set [4] (subunit inferred, GluN2D by context of b229, read-out: IC50 (potency, FIG. 10)), the half-inhibitory concentration (IC50) was found to be 32000 nM.

For the compound `O=C(O)CCC(=O)N1N=C(c2c(-c3ccc(F)c(Cl)c3)c3ccccc3[nH]c2=O)CC1c1ccc(Cl)cc1` (stereo not shown) [Compound 997-34, 4-(3-(4-(3-Chloro-4-fluorophenyl)-2-oxo-1,2-dihydroquinolin-3-yl)-5-(4-chlorophenyl)-4,5-dihydro-1H-pyrazol-1-yl)-4-oxobutanoic acid], in data set [4], the “potency at GluN2D-containing receptors, in words” value (“potency” for short) is on record as “submicromolar”.

On to `O=C(O)CCC(=O)N1N=C(c2c(-c3cc(Cl)cc(Cl)c3)c3ccccc3[nH]c2=O)CC1c1ccc(Cl)cc1` (stereo not shown) [Compound 997-37], for which the “potency” value in data set [4] is reported as “submicromolar”.

With `O=C(CC(F)(F)CO)N1N=C(c2c(-c3ccc(Cl)cc3)c3ccccc3[nH]c2=O)C[C@@H]1c1ccc(Cl)cc1` [(R)-4-(4-chlorophenyl)-3-(5-(4-chlorophenyl)-1-(3,3-difluoro-4-hydroxybutanoyl)-4,5-dihydro-1H-pyrazol-3-yl)quinolin-2(1H)-one], the IC50 stood at 8500 nM in data set [1] and 3600 nM in data set [2].

On to `O=C(O)CCC(=O)N1N=C(c2c(-c3ccc(Cl)c(Cl)c3)c3ccccc3[nH]c2=O)CC1c1ccc(Cl)cc1` (stereo not shown) [Compound 997-41, 4-(5-(4-Chlorophenyl)-3-(4-(3,4-dichlorophenyl)-2-oxo-1,2-dihydroquinolin-3-yl)-4,5-dihydro-1H-pyrazol-1-yl)-4-oxobutanoic acid], for which, in data set [4], the “potency” value is listed as “submicromolar”.

For `COC(=O)/C=C/C(=O)N1N=C(c2c(-c3ccc(Br)cc3)c3ccccc3[nH]c2=O)CC1c1ccc(Cl)cc1` (stereo not shown) [Compound 997-31, (E)-Methyl 4-(3-(4-(4-bromophenyl)-2-oxo-1,2-dihydroquinolin-3-yl)-5-(4-chlorophenyl)-4,5-dihydro-1H-pyrazol-1-yl)-4-oxobut-2-enoate], the “activity at NMDA receptors, in words” value in data set [5] was “inactive”.

Take `COC(=O)CCC(=O)N1N=C(c2c(-c3ccccc3)c3cc(Cl)ccc3[nH]c2=O)CC1c1ccc(Br)cc1` (stereo not shown) [Compound 997-11, Methyl 4-(5-(4-bromophenyl)-3-(6-chloro-2-oxo-4-phenyl-1,2-dihydroquinolin-3-yl)-4,5-dihydro-1H-pyrazol-1-yl)-4-oxobutanoate]: the “activity at NMDA receptors, in words” value in data set [5] was “inactive”.

Consider `O=C(O)CCC(=O)N1N=C(c2c(-c3ccccc3)c3cc(Cl)ccc3[nH]c2=O)CC1c1ccc(C(F)(F)F)cc1` (stereo not shown) [Compound 997-8, 4-(3-(6-Chloro-2-oxo-4-phenyl-1,2-dihydroquinolin-3-yl)-5-(4-(trifluoromethyl)phenyl)-4,5-dihydro-1H-pyrazol-1-yl)-4-oxobutanoic acid], for which the IC50 in data set [4] (GluN2D-containing receptors, read-out: inhibition IC50 for GluN2D) is 4100 nM.

With `O=C(O)CCC(=O)N1N=C(c2c(-c3cc(F)cc(F)c3)c3ccccc3[nH]c2=O)CC1c1ccc(Cl)cc1` (stereo not shown) [Compound 997-35, 4-(5-(4-Chlorophenyl)-3-(4-(3,5-difluorophenyl)-2-oxo-1,2-dihydroquinolin-3-yl)-4,5-dihydro-1H-pyrazol-1-yl)-4-oxobutanoic acid], the “potency” value in data set [4] was “submicromolar”.

`O=C(O)CCC(=O)N1N=C(c2c(-c3ccncc3)c3ccccc3[nH]c2=O)CC1c1ccc(Cl)cc1` (stereo not shown) [4-(5-(4-chlorophenyl)-3-(2-oxo-4-(pyridin-4-yl)-1,2-dihydroquinolin-3-yl)-4,5-dihydro-1H-pyrazol-1-yl)-4-oxobutanoic acid]: the IC50 turned out to be 15000 nM in data set [1] and 8100 nM in data set [2].

As for `O=C(O)CCC(=O)N1N=C(c2c(-c3ccc(F)c(F)c3)c3ccccc3[nH]c2=O)CC1c1ccc(Cl)cc1` (stereo not shown) [Compound 997-42, 4-(5-(4-Chlorophenyl)-3-(4-(3,4-difluorophenyl)-2-oxo-1,2-dihydroquinolin-3-yl)-4,5-dihydro-1H-pyrazol-1-yl)-4-oxobutanoic acid], in data set [4], the “potency” value is “submicromolar”.

With `O=C(CC(F)(F)CO)N1N=C(c2c(-c3ccc(Cl)cc3)c3ccccc3[nH]c2=O)C[C@H]1c1ccc(Cl)cc1` [(S)-4-(4-chlorophenyl)-3-(5-(4-chlorophenyl)-1-(3,3-difluoro-4-hydroxybutanoyl)-4,5-dihydro-1H-pyrazol-3-yl)quinolin-2(1H)-one], the IC50 in data set [1] is 1400 nM; in data set [2], 600 nM.

Consider `O=C(O)CC(F)(F)C(=O)N1N=C(c2c(-c3ccc(Cl)cc3)c3ccccc3[nH]c2=O)CC1c1ccc(Cl)cc1` (stereo not shown) [4-(5-(4-chlorophenyl)-3-(4-(4-chlorophenyl)-2-oxo-1,2-dihydroquinolin-3-yl)-4,5-dihydro-1H-pyrazol-1-yl)-3,3-difluoro-4-oxobutanoic acid], for which the figures for the concentration for half-maximal inhibition (IC50) in data set [1] and in data set [2] were 390 nM and 50 nM, respectively.

As to `O=C(O)CCC(=O)N1N=C(c2c(-c3ccccc3)c3cc(Cl)ccc3[nH]c2=O)CC1c1ccc(C(=O)O)cc1` (stereo not shown) [Compound 997-5, 4-(1-(3-Carboxypropanoyl)-3-(6-chloro-2-oxo-4-phenyl-1,2-dihydroquinolin-3-yl)-4,5-dihydro-1H-pyrazol-5-yl)benzoic acid], the “activity at NMDA receptors, in words” value in data set [5] is “no activity”.
